This note sets out measurements from patent publication US10934274B2, “Quinoline derivatives as TAM RTK inhibitors” (Qurient Co., Ltd., priority 2015, dated 2021).

Molecules are shown by their SMILES. Some results are limits rather than exact numbers.

The target in one experiment is T1, TYRO3 (Homo sapiens, UniProt Q06418).
T1 construct: purchased Life Technologies
T1 sequence (Q06418 41-890): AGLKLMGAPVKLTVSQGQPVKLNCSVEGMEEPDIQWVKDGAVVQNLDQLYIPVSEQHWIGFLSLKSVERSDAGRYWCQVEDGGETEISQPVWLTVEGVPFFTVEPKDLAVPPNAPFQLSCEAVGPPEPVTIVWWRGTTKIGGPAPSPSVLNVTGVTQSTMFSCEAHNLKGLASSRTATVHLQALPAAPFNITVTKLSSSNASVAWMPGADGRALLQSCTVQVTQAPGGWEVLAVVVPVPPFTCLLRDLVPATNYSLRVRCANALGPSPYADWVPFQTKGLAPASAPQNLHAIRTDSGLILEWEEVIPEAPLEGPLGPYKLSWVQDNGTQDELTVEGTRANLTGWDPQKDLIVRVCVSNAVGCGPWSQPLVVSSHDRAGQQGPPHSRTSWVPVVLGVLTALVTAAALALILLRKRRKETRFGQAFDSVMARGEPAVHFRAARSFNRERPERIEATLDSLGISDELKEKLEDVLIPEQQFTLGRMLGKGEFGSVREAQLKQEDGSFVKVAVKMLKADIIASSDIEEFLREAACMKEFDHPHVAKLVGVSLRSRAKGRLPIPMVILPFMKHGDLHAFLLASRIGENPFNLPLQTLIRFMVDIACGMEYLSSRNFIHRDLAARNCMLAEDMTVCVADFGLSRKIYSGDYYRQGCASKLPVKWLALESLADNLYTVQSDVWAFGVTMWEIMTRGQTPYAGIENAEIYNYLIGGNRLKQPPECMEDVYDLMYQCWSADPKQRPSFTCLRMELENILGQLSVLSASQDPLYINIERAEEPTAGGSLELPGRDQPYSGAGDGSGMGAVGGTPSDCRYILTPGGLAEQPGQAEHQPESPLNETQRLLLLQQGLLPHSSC
Nature of the experiment: LanthaScreen Eu kinase binding assay, TYRO3. The note with it: Tracer 236.

In the next experiment the target is T2, Met (Homo sapiens, UniProt P08581).
T2 construct: purchased Life Technologies
T2 sequence (P08581 25-1390): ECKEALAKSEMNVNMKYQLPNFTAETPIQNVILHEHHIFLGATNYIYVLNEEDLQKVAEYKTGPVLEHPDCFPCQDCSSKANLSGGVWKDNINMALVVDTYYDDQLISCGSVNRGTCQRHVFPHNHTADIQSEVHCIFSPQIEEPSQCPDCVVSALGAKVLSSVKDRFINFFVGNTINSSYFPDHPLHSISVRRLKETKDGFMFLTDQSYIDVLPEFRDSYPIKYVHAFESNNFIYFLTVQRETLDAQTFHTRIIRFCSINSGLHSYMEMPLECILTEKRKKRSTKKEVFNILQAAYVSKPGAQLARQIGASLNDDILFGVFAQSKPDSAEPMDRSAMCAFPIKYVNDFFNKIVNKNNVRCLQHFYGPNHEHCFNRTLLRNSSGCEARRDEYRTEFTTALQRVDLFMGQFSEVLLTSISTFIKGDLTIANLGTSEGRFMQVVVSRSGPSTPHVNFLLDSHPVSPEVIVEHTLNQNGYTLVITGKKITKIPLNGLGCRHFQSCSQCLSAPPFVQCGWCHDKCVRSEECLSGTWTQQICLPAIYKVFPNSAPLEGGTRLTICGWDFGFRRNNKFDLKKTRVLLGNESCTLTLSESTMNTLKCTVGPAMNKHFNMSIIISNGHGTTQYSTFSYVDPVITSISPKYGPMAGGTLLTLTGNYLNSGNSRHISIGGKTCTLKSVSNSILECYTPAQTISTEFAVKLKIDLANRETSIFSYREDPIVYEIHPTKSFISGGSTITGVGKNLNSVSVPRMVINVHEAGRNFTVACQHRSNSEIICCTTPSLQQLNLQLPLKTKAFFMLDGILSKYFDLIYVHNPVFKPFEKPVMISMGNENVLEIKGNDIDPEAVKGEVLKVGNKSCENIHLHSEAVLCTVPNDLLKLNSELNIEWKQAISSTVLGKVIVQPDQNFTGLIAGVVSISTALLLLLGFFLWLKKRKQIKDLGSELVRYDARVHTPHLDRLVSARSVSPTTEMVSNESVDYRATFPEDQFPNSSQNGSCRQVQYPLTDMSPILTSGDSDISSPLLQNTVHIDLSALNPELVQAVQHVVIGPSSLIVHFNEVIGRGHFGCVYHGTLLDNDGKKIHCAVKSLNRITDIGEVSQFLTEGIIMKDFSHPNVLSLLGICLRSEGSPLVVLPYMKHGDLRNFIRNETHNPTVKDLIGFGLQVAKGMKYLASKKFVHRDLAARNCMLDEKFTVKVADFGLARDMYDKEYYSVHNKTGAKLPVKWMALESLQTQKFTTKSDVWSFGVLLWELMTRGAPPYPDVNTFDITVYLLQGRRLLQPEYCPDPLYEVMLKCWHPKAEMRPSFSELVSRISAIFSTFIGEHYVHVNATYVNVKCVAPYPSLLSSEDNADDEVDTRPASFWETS
Nature of the experiment: LanthaScreen Eu kinase binding assay, Met. The note with it: Tracer 236, read-out: cMet kinase binding activity (Kd).

The next experiment has as its target T3, Axl (Homo sapiens, UniProt P30530).
T3 construct: purchased Life Technologies
T3 sequence (P30530 26-894): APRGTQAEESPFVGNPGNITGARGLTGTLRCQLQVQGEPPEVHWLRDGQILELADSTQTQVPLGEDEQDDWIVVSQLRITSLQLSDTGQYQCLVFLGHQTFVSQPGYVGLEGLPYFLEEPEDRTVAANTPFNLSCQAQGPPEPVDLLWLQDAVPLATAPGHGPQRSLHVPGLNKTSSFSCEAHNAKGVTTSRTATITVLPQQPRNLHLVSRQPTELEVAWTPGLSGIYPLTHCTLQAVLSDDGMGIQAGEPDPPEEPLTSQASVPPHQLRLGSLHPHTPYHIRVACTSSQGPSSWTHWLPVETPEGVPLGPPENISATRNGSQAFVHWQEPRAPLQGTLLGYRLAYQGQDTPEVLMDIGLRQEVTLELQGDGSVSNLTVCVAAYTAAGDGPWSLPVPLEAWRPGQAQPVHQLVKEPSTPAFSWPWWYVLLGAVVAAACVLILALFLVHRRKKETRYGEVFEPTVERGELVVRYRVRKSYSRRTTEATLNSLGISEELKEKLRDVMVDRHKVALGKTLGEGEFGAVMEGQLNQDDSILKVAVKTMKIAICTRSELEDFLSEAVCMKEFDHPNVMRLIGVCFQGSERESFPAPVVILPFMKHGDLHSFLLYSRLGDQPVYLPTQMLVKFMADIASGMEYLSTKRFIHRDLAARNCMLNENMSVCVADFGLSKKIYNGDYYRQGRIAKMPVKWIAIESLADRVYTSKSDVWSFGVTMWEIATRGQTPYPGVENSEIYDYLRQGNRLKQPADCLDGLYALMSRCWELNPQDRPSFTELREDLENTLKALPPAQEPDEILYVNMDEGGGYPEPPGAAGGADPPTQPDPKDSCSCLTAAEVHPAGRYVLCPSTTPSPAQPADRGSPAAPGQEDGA
Nature of the experiment: LanthaScreen Eu kinase binding assay, Axl. The note with it: Tracer 236. A general note: TR-FRET usually uses a lanthanide donor and a delayed reading to cut background.

For another experiment, the target named is T4, Mer (Homo sapiens, UniProt Q12866).
T4 construct: purchased Life Technologies
T4 sequence (Q12866 21-999): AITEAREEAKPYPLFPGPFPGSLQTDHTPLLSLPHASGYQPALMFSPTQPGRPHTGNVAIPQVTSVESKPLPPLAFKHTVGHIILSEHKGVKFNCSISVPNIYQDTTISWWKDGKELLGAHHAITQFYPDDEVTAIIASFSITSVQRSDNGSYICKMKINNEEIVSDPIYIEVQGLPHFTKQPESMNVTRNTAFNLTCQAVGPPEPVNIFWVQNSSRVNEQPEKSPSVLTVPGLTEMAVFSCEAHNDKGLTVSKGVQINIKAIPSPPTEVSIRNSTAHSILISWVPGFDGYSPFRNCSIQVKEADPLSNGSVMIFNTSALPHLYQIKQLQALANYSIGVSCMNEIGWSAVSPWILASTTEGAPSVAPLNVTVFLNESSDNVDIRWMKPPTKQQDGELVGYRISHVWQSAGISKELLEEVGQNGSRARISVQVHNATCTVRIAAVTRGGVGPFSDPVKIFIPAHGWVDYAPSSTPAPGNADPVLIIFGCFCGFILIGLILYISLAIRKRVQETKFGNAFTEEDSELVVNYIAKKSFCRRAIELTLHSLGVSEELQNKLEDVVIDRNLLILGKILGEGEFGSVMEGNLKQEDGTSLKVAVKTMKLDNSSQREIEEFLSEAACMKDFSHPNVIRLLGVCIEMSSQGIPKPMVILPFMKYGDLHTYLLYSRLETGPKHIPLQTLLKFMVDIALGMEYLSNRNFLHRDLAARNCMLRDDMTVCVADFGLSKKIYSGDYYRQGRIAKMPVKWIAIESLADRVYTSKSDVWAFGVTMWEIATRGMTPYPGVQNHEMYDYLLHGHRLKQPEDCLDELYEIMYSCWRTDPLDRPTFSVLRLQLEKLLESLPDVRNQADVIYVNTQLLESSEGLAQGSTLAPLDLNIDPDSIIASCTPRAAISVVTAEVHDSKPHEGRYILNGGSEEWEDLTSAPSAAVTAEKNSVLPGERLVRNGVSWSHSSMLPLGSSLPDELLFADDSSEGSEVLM
Nature of the experiment: LanthaScreen Eu kinase binding assay, Mer. The conditions noted are these: Tracer 236.

Take `CCOc1cn(-c2cnccn2)nc1C(=O)NC1CC(Oc2ccnc3cc(OC)c(OC)cc23)C1` (stereo not drawn) [Compound 204]: the Kd – broadly, a measure of binding affinity in units of concentration – at TYRO3 was at least 1000 nM; at Met, 100 to 1000 nM; on Axl it was at least 1000 nM; at Mer, 100 to 1000 nM.
Regarding `CCOc1cn(CC2CCCN(C)C2)nc1C(=O)Nc1ccc(Oc2ccnc3cc(OC)c(OC)cc23)cc1F` (stereo not drawn) [Compound 214], the Kd at TYRO3, on Met, on Axl and at Mer was 100 to 1000 nM each time.
Regarding `CCOc1cnn(CC2CCCN(C)C2)c1C(=O)Nc1ccc(Oc2ccnc3cc(OC)c(OC)cc23)cc1F` (stereo not drawn) [Compound 216], the Kd was at least 1000 nM at TYRO3, 100 to 1000 nM on Met, 100 to 1000 nM at Axl and 100 to 1000 nM on Mer.
On to `CCOc1cnn(Cc2cnccn2)c1C(=O)Nc1ccc(Oc2ccnc3cc(OC)c(OC)cc23)cc1F` [Compound 217], for which the Kd was at least 1000 nM at TYRO3, 100 to 1000 nM at Met, at least 1000 nM at Axl and 100 to 1000 nM at Mer.
In the case of `CCOc1cn(CC2CCNCC2)nc1C(=O)Nc1ccc(Oc2ccnc3cc(OC)c(OC)cc23)cc1F` [Compound 218], the Kd at TYRO3, at Met, on Axl and at Mer was 100 to 1000 nM throughout.
As to `CCOc1cn(CC2CCN(C)CC2)nc1C(=O)Nc1ccc(Oc2ccnc3cc(OC)c(OC)cc23)cc1F` [Compound 219], the Kd at TYRO3, on Met, on Axl and at Mer was 100 to 1000 nM throughout.
Take `CCOc1cnn(CC2CCN(C)CC2)c1C(=O)Nc1ccc(Oc2ccnc3cc(OC)c(OC)cc23)cc1F` [Compound 220]: the Kd at TYRO3, on Met, on Axl and on Mer was at least 1000 nM in each case.
`CCOc1cn(-c2cnccc2C)nc1C(=O)NC1CC2(C1)CC(Oc1ccnc3cc(OC)c(OC)cc13)C2` (stereo not drawn) [Compound 221]: the dissociation constant (Kd) at TYRO3, on Met, at Axl and at Mer was at least 1000 nM throughout.
On to `CCOc1cn(C2CCN(C)CC2)nc1C(=O)Nc1ccc(Oc2ccnc3cc(OC)c(OC)cc23)cc1F` [Compound 222], for which the Kd at TYRO3 was at least 1000 nM; at Met, at least 1000 nM; on Axl, 100 to 1000 nM; at Mer it was 100 to 1000 nM.
Take `CCOc1cnn(C2CCN(C)CC2)c1C(=O)Nc1ccc(Oc2ccnc3cc(OC)c(OC)cc23)cc1F` [Compound 223]: the Kd at TYRO3 is at least 1000 nM; on Met, at least 1000 nM; on Axl, at least 1000 nM; on Mer, 100 to 1000 nM.
For the molecule `CCOc1cnn(Cc2cnccc2C)c1C(=O)Nc1ccc(Oc2ccnc3cc(OC)c(OC)cc23)cc1F` [Compound 228], the Kd on TYRO3 was at least 1000 nM; at Met, 100 to 1000 nM; on Axl, at least 1000 nM; at Mer it was 100 to 1000 nM.
For the molecule `CCOc1cnn(-c2cnc(N)nc2)c1C(=O)Nc1ccc(Oc2ccnc3cc(OC(C)C)c(OC)cc23)cc1F` [Compound 232], the Kd at TYRO3 was at least 1000 nM; on Met, at least 1000 nM; at Axl, 100 to 1000 nM; at Mer, 100 to 1000 nM.
`CCC(C)Oc1cc2nccc(Oc3ccc(NC(=O)c4nn(-c5cnc(N)nc5)cc4OCC(F)(F)F)nc3)c2cc1OC` (stereo not drawn) [Compound 235]: the Kd is below 100 nM at TYRO3, 100 to 1000 nM on Met, below 100 nM on Axl and below 100 nM on Mer.
`CCC(C)Oc1cc2nccc(Oc3ccc(NC(=O)c4c(OCC(F)(F)F)cnn4-c4cnc(N)nc4)nc3)c2cc1OC` (stereo not drawn) [Compound 238]: the Kd at TYRO3 was at least 1000 nM; on Met it was at least 1000 nM; at Axl, at least 1000 nM; on Mer, 100 to 1000 nM.
As to `COCCOc1cnn(-c2cnc(N)nc2)c1C(=O)Nc1ccc(Oc2ccnc3cc(OC)c(OC)cc23)cn1` [Compound 245], the Kd is at least 1000 nM on TYRO3, at least 1000 nM on Met, at least 1000 nM at Axl and 100 to 1000 nM on Mer.
For `COc1cc2c(Oc3ccc(NC(=O)c4c(OCC(F)(F)F)cnn4-c4cnc(N)nc4)nc3)ccnc2cc1OC(C)C` [Compound 256], the Kd is at least 1000 nM on TYRO3, at least 1000 nM at Met, 100 to 1000 nM at Axl and 100 to 1000 nM on Mer.
As for `COc1cc2nccc(Oc3ccc(NC(=O)c4nn(-c5ccc(F)cc5-c5ccccc5)cc4OCC4CC4)nc3)c2cc1OC` [Compound 275], the equilibrium dissociation constant (Kd) on TYRO3, at Met, on Axl and at Mer was 100 to 1000 nM throughout.
As to `COc1cc2nccc(Oc3ccc(NC(=O)c4nn(-c5ccc(F)cc5C)cc4OCCN(C)C)cc3F)c2cc1OC` [Compound 276], the Kd at TYRO3 was 100 to 1000 nM; at Met, below 100 nM; at Axl, below 100 nM; at Mer it was below 100 nM.
As for `CCOc1nn(-c2ccc(F)cc2C)cc1C(=O)Nc1ccc(Oc2ccnc3cc(OC)c(OC)cc23)c(F)c1` [Compound 277], the Kd on TYRO3 is below 100 nM; on Met, at least 1000 nM; on Axl, at least 1000 nM; on Mer it was 100 to 1000 nM.
For `COc1cc2nccc(Oc3ccc(NC(=O)c4nn(-c5ccc(F)c(Cl)c5)cc4OCC(F)(F)F)nc3)c2cc1OC` [Compound 278], the Kd at TYRO3 is 100 to 1000 nM; at Met it was 100 to 1000 nM; on Axl, below 100 nM; on Mer, below 100 nM.
Turning to `COc1cc2nccc(Oc3ccc(NC(=O)c4nn(-c5cc(F)ccc5Cl)cc4OCC(F)(F)F)nc3)c2cc1OC` [Compound 279], the Kd at TYRO3, on Met, on Axl and on Mer was below 100 nM each time.
